According to ChEMBL document CHEMBL1141332, “Cytotoxic metabolites from an Indonesian sponge Lendenfeldia sp” (J Nat Prod, 2007):

Experiments:
Type in all cases: functional
[1] = tested on: K562; assay: Cytotoxicity against human K562 cells
[2] = tested on: MOLT-4; assay: Cytotoxicity against human MOLT4 cells
[3] = tested on: RPMI-8226; assay: Cytotoxicity against human RPMI8226 cells
[4] = tested on: SR; assay: Cytotoxicity against human SR cells
[5] = tested on: A549; assay: Cytotoxicity against human A549 cells
[6] = tested on: HOP-92; assay: Cytotoxicity against human HOP92 cells
[7] = tested on: NCI-H226; assay: Cytotoxicity against human NCI-H226 cells
[8] = tested on: NCI-H23; assay: Cytotoxicity against human NCI-H23 cells
[9] = tested on: NCI-H322M; assay: Cytotoxicity against human NCI-H322M cells
[10] = tested on: NCI-H460; assay: Cytotoxicity against human NCI-H460 cells
[11] = tested on: LOX IMVI; assay: Cytotoxicity against human LOX IMVI cells
[12] = tested on: COLO 205; assay: Cytotoxicity against human COLO205 cells
[13] = tested on: HCC 2998; assay: Cytotoxicity against human HCC2998 cells
[14] = tested on: HCT-116; assay: Cytotoxicity against human HCT116 cells
[15] = tested on: HCT-15; assay: Cytotoxicity against human HCT15 cells
[16] = tested on: HT-29; assay: Cytotoxicity against human HT29 cells
[17] = tested on: KM12; assay: Cytotoxicity against human KM12 cells
[18] = tested on: SF-268; assay: Cytotoxicity against human SF268 cells
[19] = tested on: SF-295; assay: Cytotoxicity against human SF295 cells
[20] = tested on: SF-539; assay: Cytotoxicity against human SF539 cells
[21] = tested on: SNB-19; assay: Cytotoxicity against human SNB19 cells; details: read-out: Log LC50 (the source's name) (converted)
[22] = tested on: SNB-75; assay: Cytotoxicity against human SNB75 cells
[23] = tested on: U-251; assay: Cytotoxicity against human U251cells
[24] = tested on: Malme-3M; assay: Cytotoxicity against human MALME-3M cells
[25] = tested on: M14; assay: Cytotoxicity against human M14 cells
[26] = tested on: SK-MEL-2; assay: Cytotoxicity against human SK-MEL-2 cells
[27] = tested on: SK-MEL-28; assay: Cytotoxicity against human SK-MEL-28 cells
[28] = tested on: UACC-257; assay: Cytotoxicity against human UACC257 cells
[29] = tested on: UACC-62; assay: Cytotoxicity against human UACC62 cells
[30] = tested on: IGROV-1; assay: Cytotoxicity against human IGROV1 cells
[31] = tested on: OVCAR-3; assay: Cytotoxicity against human OVCAR-3 cells
[32] = tested on: OVCAR-4; assay: Cytotoxicity against human OVCAR4 cells
[33] = tested on: OVCAR-5; assay: Cytotoxicity against human OVCAR5 cells
[34] = tested on: OVCAR-8; assay: Cytotoxicity against human OVCAR8 cells
[35] = tested on: 786-0; assay: Cytotoxicity against human 786-0 cells
[36] = tested on: ACHN; assay: Cytotoxicity against human ACHN cells
[37] = tested on: RXF 393; assay: Cytotoxicity against human RXF393 cells
[38] = tested on: SN12C; assay: Cytotoxicity against human SN12C cells
[39] = tested on: TK-10; assay: Cytotoxicity against human TK10 cells
[40] = tested on: UO-31; assay: Cytotoxicity against human UO31 cells
[41] = tested on: PC-3; assay: Cytotoxicity against human PC3 cells
[42] = tested on: MCF7; assay: Cytotoxicity against human MCF7 cells
[43] = tested on: NCI/ADR-RES; assay: Cytotoxicity against human NCI/ADR-RES cells
[44] = tested on: MDA-MB-435; assay: Cytotoxicity against human MDA-MB-435 cells
[45] = tested on: BT-549; assay: Cytotoxicity against human BT549 cells
[46] = tested on: T47D; assay: Cytotoxicity against human T47D cells
[47] = read-out: Log LC50 (the source's name) (converted)

CC(=O)O[C@@H]1C[C@H]2[C@]3(C)CC[C@H]4C(C)(C)CCC[C@]4(C)[C@H]3C[C@H](O)[C@]2(C)[C@@H](C=O)[C@@H]1C(C)=O [SCALARHERBACIN A]
GI50 [1]: 1740 nM
CC50 [1, 47]: 7760 nM
TGI ([1]; read-out: Log TGI (converted)): 3720 nM
GI50 [2]: 324 nM
CC50 [2, 47]: 4170 nM
TGI ([2]; read-out: Log TGI (converted)): 1120 nM
GI50 [3]: 407 nM
CC50 [3, 47]: 13200 nM
TGI ([3]; read-out: Log TGI (converted)): 2090 nM
GI50 [4]: 282 nM
TGI ([4]; read-out: Log TGI (converted)): 1150 nM
GI50 [5]: 1230 nM
CC50 [5, 47]: 6610 nM
TGI ([5]; read-out: Log TGI (converted)): 2820 nM
GI50 [6]: 1320 nM
CC50 [6, 47]: 5500 nM
TGI ([6]; read-out: Log TGI (converted)): 2690 nM
GI50 [7]: 1580 nM
CC50 [7, 47]: 6760 nM
TGI ([7]; read-out: Log TGI (converted)): 3240 nM
GI50 [8]: 1660 nM
CC50 [8, 47]: 6170 nM
TGI ([8]; read-out: Log TGI (converted)): 3240 nM
GI50 [9]: 2140 nM
CC50 [9, 47]: 8710 nM
TGI ([9]; read-out: Log TGI (converted)): 4270 nM
GI50 [10]: 1450 nM
CC50 [10, 47]: 6760 nM
TGI ([10]; read-out: Log TGI (converted)): 3160 nM
GI50 [11]: 1000 nM
CC50 [11, 47]: 4680 nM
TGI ([11]; read-out: Log TGI (converted)): 2140 nM
GI50 [12]: 537 nM
CC50 [12, 47]: 5250 nM
TGI ([12]; read-out: Log TGI (converted)): 1860 nM
GI50 [13]: 1510 nM
CC50 [13, 47]: 5620 nM
TGI ([13]; read-out: Log TGI (converted)): 2950 nM
GI50 [14]: 407 nM
CC50 [14, 47]: 3720 nM
TGI ([14]; read-out: Log TGI (converted)): 1380 nM
GI50 [15]: 759 nM
CC50 [15, 47]: 4790 nM
TGI ([15]; read-out: Log TGI (converted)): 2040 nM
GI50 [16]: 309 nM
CC50 [16, 47]: 3800 nM
TGI ([16]; read-out: Log TGI (converted)): 1100 nM
GI50 [17]: 1480 nM
CC50 [17, 47]: 8510 nM
TGI ([17]; read-out: Log TGI (converted)): 3550 nM
GI50 [18]: 1450 nM
CC50 [18, 47]: 7410 nM
TGI ([18]; read-out: Log TGI (converted)): 3240 nM
GI50 [19]: 1450 nM
CC50 [19, 47]: 6170 nM
TGI ([19]; read-out: Log TGI (converted)): 3020 nM
GI50 [20]: 417 nM
TGI ([20]; read-out: Log TGI (converted)): 1580 nM
CC50 [21]: 1660 nM
GI50 [22]: 1580 nM
CC50 [22, 47]: 5500 nM
TGI ([22]; read-out: Log TGI (converted)): 2950 nM
GI50 [23]: 589 nM
CC50 [23, 47]: 4270 nM
TGI ([23]; read-out: Log TGI (converted)): 1780 nM
GI50 [24]: 1950 nM
TGI ([24]; read-out: Log TGI (converted)): 3890 nM
GI50 [25]: 1450 nM
CC50 [25, 47]: 5370 nM
TGI ([25]; read-out: Log TGI (converted)): 2750 nM
GI50 [26]: 2240 nM
CC50 [26, 47]: 16600 nM
TGI ([26]; read-out: Log TGI (converted)): 4790 nM
GI50 [27]: 389 nM
TGI ([27]; read-out: Log TGI (converted)): 1290 nM
GI50 [28]: 2190 nM
CC50 [28, 47]: 27500 nM
TGI ([28]; read-out: Log TGI (converted)): 5250 nM
GI50 [29]: 1580 nM
CC50 [29, 47]: 5500 nM
TGI ([29]; read-out: Log TGI (converted)): 2950 nM
GI50 [30]: 1950 nM
CC50 [30, 47]: 8320 nM
TGI ([30]; read-out: Log TGI (converted)): 4070 nM
GI50 [31]: 1120 nM
CC50 [31, 47]: 5500 nM
TGI ([31]; read-out: Log TGI (converted)): 2510 nM
GI50 [32]: 912 nM
CC50 [32, 47]: 6610 nM
TGI ([32]; read-out: Log TGI (converted)): 2510 nM
GI50 [33]: 1320 nM
CC50 [33, 47]: 5130 nM
TGI ([33]; read-out: Log TGI (converted)): 2630 nM
GI50 [34]: 676 nM
CC50 [34, 47]: 57500 nM
TGI ([34]; read-out: Log TGI (converted)): 3890 nM
GI50 [35]: 479 nM
CC50 [35, 47]: 4070 nM
TGI ([35]; read-out: Log TGI (converted)): 1620 nM
GI50 [36]: 457 nM
LC50 [36]: 3980 nM
TGI ([36]; read-out: Log TGI (converted)): 1550 nM
GI50 [37]: 1150 nM
LC50 [37]: 5370 nM
TGI ([37]; read-out: Log TGI (converted)): 2510 nM
GI50 [38]: 1350 nM
TGI ([38]; read-out: Log TGI (converted)): 2750 nM
GI50 [39]: 1380 nM
LC50 [39]: 6610 nM
TGI ([39]; read-out: Log TGI (converted)): 3020 nM
GI50 [40]: 1230 nM
TGI ([40]; read-out: Log TGI (converted)): 2570 nM
GI50 [41]: 741 nM
LC50 [41]: 5250 nM
TGI ([41]; read-out: Log TGI (converted)): 2140 nM
GI50 [42]: 1820 nM
LC50 [42]: 70800 nM
TGI ([42]; read-out: Log TGI (converted)): 6170 nM
GI50 [43]: 1660 nM
LC50 [43]: 7080 nM
TGI ([43]; read-out: Log TGI (converted)): 3470 nM
GI50 [44]: 1450 nM
LC50 [44]: 6760 nM
TGI ([44]; read-out: Log TGI (converted)): 3090 nM
GI50 [45]: 562 nM
LC50 [45]: 4370 nM
TGI ([45]; read-out: Log TGI (converted)): 1780 nM
GI50 [46]: 832 nM
LC50 [46]: 25100 nM
TGI ([46]; read-out: Log TGI (converted)): 3550 nM
